# Laboratory results reported in the supplement of paper PMC10307832.
# Columns and labels:
# Experiment in all cases: relative viability (nuclei count vs DMSO), 5 days (fraction); higher = more cells survive
# [1] = compound: CC(C)N(CCCNC(=O)Nc1ccc(C(C)(C)C)cc1)C[C@H]1O[C@@H](n2ccc3c(N)ncnc32)[C@H](O)[C@@H]1O + C[C@@H](Oc1cc(-c2cnn(C3CCNCC3)c2)cnc1N)c1c(Cl)ccc(F)c1Cl [Crizotinib] (partner 1 µM)
# Procedure, shortened: (§1)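 Each reported value is a median over duplicate plates. It expresses relative viability: treated-well nuclei count divided by vehicle-well nuclei count. Lung cancer cell lines in 1536-well plates were dosed by pin tool a day after seeding, alone with one drug or with a fixed anchor-drug dose plus five library-drug doses (not always all listed) in √10 steps, and nuclei were counted after 5 days.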
# [2] = compound: CC(C)N(CCCNC(=O)Nc1ccc(C(C)(C)C)cc1)C[C@H]1O[C@@H](n2ccc3c(N)ncnc32)[C@H](O)[C@@H]1O + O=C(c1cc(Cc2n[nH]c(=O)c3ccccc23)ccc1F)N1CCN(C(=O)C2CC2)CC1 [Olaparib] (partner 8 µM)
# Procedure, shortened: as §1
# [3] = compound: CC(C)N(CCCNC(=O)Nc1ccc(C(C)(C)C)cc1)C[C@H]1O[C@@H](n2ccc3c(N)ncnc32)[C@H](O)[C@@H]1O + CC(C)C[C@H](NC(=O)[C@H](Cc1ccccc1)NC(=O)c1cnccn1)B(O)O [Bortezomib] (partner 0.002 µM)
# Procedure, shortened: as §1
# [4] = compound: CC(C)N(CCCNC(=O)Nc1ccc(C(C)(C)C)cc1)C[C@H]1O[C@@H](n2ccc3c(N)ncnc32)[C@H](O)[C@@H]1O + Nc1ncn([C@H]2C[C@H](O)[C@@H](CO)O2)c(=O)n1 [Decitabine] (partner 2 µM)
# Procedure, shortened: as §1
cell line,measurement,setting,value
UMC-11,relative viability,[1]; first compound 0.08 µM,0.579
same,relative viability,[1]; first compound 0.253 µM,0.706
same,relative viability,[1]; first compound 0.8 µM,0.723
same,relative viability,[1]; first compound 2.53 µM,0.656
same,relative viability,[1]; first compound 8 µM,0.636
same,relative viability,[2]; first compound 0.08 µM,0.407
same,relative viability,[2]; first compound 0.253 µM,0.447
same,relative viability,[2]; first compound 0.8 µM,0.378
same,relative viability,[2]; first compound 2.53 µM,0.327
same,relative viability,[2]; first compound 8 µM,0.323
same,relative viability,[3]; first compound 0.08 µM,0.654
same,relative viability,[3]; first compound 0.253 µM,0.531
same,relative viability,[3]; first compound 0.8 µM,0.673
same,relative viability,[3]; first compound 2.53 µM,0.79
same,relative viability,[3]; first compound 8 µM,0.617
same,relative viability,[4]; first compound 0.08 µM,0.584
same,relative viability,[4]; first compound 0.253 µM,0.621
same,relative viability,[4]; first compound 0.8 µM,0.488
same,relative viability,[4]; first compound 2.53 µM,0.534
same,relative viability,[4]; first compound 8 µM,0.585
